The text below walks through data of article PMC8991199, “Promiscuity mapping of the S100 protein family using a high-throughput holdup assay” (Scientific Reports, 2022).

One series concerns the target S100A6 (Homo sapiens, UniProt P06703). The series is described as follows: direct fluorescence polarization (FP), S100A6. The class given is binding. The text has this:
HTP (and also low-throughput) measurements generally need to be validated by an orthogonal approach to eliminate experimental artifacts. […] In this assay, the association of the fluorescently labeled foldamer and the S100 protein of interest is monitored, through the change in polarization of the emitted light by the fluorophore upon the binding event. In direct FP, the presence of the fluorophore might change the binding affinity of some foldamers. […] Nevertheless, we assumed that the fluorophore would affect all foldamers that target the same binding site to the same degree, because the foldamer scaffold is rigid.
Briefly, S100 proteins were cloned into a modified pET15b vector with a TEV protease cleavable N-terminal His6-tag and expressed in Escherichia coli BL21 (DE3) cells, followed by Ni^2+-affinity chromatography. For HU assay, S100 proteins were further purified by either hydrophobic interaction chromatography or ion exchange chromatography without the cleavage of the N-terminal His6-tag applying standard conditions. For direct FP measurements, the N-terminal His6-tag was cleaved, and the S100 proteins were purified by hydrophobic interaction chromatography, ion exchange chromatography or size exclusion chromatography. The quality of the recombinant proteins was checked by SDS-PAGE analysis in all cases. The concentration of the recombinant S100 proteins was determined by UV spectrophotometry using the absorbance of Tyr and Trp residues.
In direct fluorescence polarization assays, S100 proteins were diluted in a buffer containing 50 nM labeled foldamer, 20 mM HEPES pH 7.5, 150 mM NaCl, 1 mM CaCl2, 0.5 mM TCEP and 0.01% Tween20. The dilution series (50 µl) were divided into three technical repeats and transferred (15 µl) to a 384-well microplate. In competitive fluorescence polarization assays, the buffer applied in direct measurements was supplemented with the S100 protein of interest to reach a saturation of 60–80%. This mixture was titrated with the competitor (i.e. the unlabeled peptide). Fluorescence polarization was measured in 8 different S100 concentrations (one of which contained no S100 protein) on a Synergy H4 plate reader using 485 ± 20 nm and 528 ± 20 nm band-pass filters for excitation and emission, respectively. The Kd values were obtained by fitting the data from the FP measurements with the python-based ProFit software using quadratic and competitive binding equation for direct and competitive FP, respectively. The detection threshold was based on two parameters. First, we rejected all fitted dissociation constants above 1 mM.

The nature of series [1]: solubility by light scattering. Particulars: 20 mM HEPES, 150 mM NaCl, 2 mM CaCl2, pH 7.5, 10 nM to 1 mM, triplicates.
Procedure: Foldamers were dissolved in a buffer consisting of 20 mM HEPES, 150 mM NaCl, 2 mM CaCl2, pH = 7.5 at 11 different concentrations from 10 nM to 1 mM. 100 μl samples in triplicates were pipetted into a 96-well ELISA plate and absorbance values were recorded by using FLUOstar OPTIMA plate reader at 650 nm wavelength.

Where only a bound is given, the exact number is not on record here.

The Kd is the concentration at which binding is half-saturated.

Turning to `CSCC[C@@H](CC(=O)N[C@H]1CCCC[C@@H]1C(=O)NCC(=O)N[C@@H](CCCCNC(=O)c1ccc2c(c1)C1(OC2=O)c2ccc(O)cc2Oc2cc(O)ccc21)C(N)=O)NC(=O)[C@H]1CCCC[C@@H]1NC(=O)[C@H]1CCCC[C@@H]1NC(=O)C[C@@H](NC(=O)[C@H]1CCCC[C@@H]1N)[C@@H](C)O` [fTM], the dissociation constant Kd on S100A6 amounted to 517 ± 57 µM.

Take `N=C(N)NCCC[C@@H](CC(=O)N[C@H]1CCCC[C@@H]1C(=O)NCC(=O)N[C@@H](CCCCNC(=O)c1ccc2c(c1)C1(OC2=O)c2ccc(O)cc2Oc2cc(O)ccc21)C(N)=O)NC(=O)[C@H]1CCCC[C@@H]1NC(=O)[C@H]1CCCC[C@@H]1NC(=O)C[C@H](CCCNC(=N)N)NC(=O)[C@H]1CCCC[C@@H]1N` [fRR]: the Kd at S100A6 is above 1000 µM.

Take `NC(=O)[C@H](CCCCNC(=O)c1ccc2c(c1)C1(OC2=O)c2ccc(O)cc2Oc2cc(O)ccc21)NC(=O)CNC(=O)[C@H]1CCCC[C@@H]1NC(=O)C[C@H](Cc1c[nH]c2ccccc12)NC(=O)[C@H]1CCCC[C@@H]1NC(=O)[C@H]1CCCC[C@@H]1NC(=O)C[C@H](Cc1c[nH]c2ccccc12)NC(=O)[C@H]1CCCC[C@@H]1N` [fWW]: the Kd at S100A6 came to 100 ± 3.2 µM. For the same compound, the “concentration above which light scattering is increased” value in series [1] (Fig. S2, absorbance at 650 nm) is listed as “above 1 μM”. Moreover, the “concentration at which aggregation was observed” value in series [1] (light scattering on 600 nm (text; method: absorbance at 650 nm)) stood at 10 µM.

Take `CC(C)C[C@@H](CC(=O)N[C@H]1CCCC[C@@H]1C(=O)NCC(=O)N[C@@H](CCCCNC(=O)c1ccc2c(c1)C1(OC2=O)c2ccc(O)cc2Oc2cc(O)ccc21)C(N)=O)NC(=O)[C@H]1CCCC[C@@H]1NC(=O)[C@H]1CCCC[C@@H]1NC(=O)C[C@H](Cc1c[nH]c2ccccc12)NC(=O)[C@H]1CCCC[C@@H]1N` [fWL]: the Kd on S100A6 was found to be 30 ± 1.7 µM.

Consider `CC[C@H](C)[C@@H](CC(=O)N[C@H]1CCCC[C@@H]1C(=O)NCC(=O)N[C@@H](CCCCNC(=O)c1ccc2c(c1)C1(OC2=O)c2ccc(O)cc2Oc2cc(O)ccc21)C(N)=O)NC(=O)[C@H]1CCCC[C@@H]1NC(=O)[C@H]1CCCC[C@@H]1NC(=O)C[C@@H](NC(=O)[C@H]1CCCC[C@@H]1N)[C@@H](C)O` [fTI], for which the Kd on S100A6 was 699 ± 63 µM.
